Laboratory results published in patent US6229011A, “N-aroylphenylalanine derivative VCAM-1 inhibitors” (Hoffman-La Roche Inc., priority 1998, dated 2001).

Experiments:
VLA-4 (α4β1 integrin) [1] = target: T1, VLA-4 (α4β1 integrin) (Homo sapiens, UniProt P05556+P13612); assay: biochemical; format: binding
Experimental: VLA-4/VCAM-1 Screening Assay
VLA-4 antagonist activity, defined as ability to compete for binding to immobilized VCAM-1, was quantitated using a solid-phase, dual antibody ELISA. VLA-4 (α4β1 integrin) bound to VCAM-1 is detected by a complex of anti-integrin β1 antibody: HRP-conjugated anti-mouse IgG: chromogenic substrate (K-Blue). Initially, this entailed coating 96 well plates (Nunc Maxisorp) with recombinant human VCAM-1 (0.4 μg in 100 μl PBS), sealing each plate and then allowing the plates to stand at 4° C. for Å 18 hr. […] On the day of assay, all plates are washed twice with VCAM Assay Buffer (200 μl/well of 50 mM Tris-HCl. 100 mM NaCl, 1 mM MnCl2), 0.05% Tween 20; pH 7.4). Test compounds are dissolved in 100% DMSO and then diluted 1:20 in VCAM Assay Buffer supplemented with 1 mg/mL BSA (i.e., final DMSO=5%). […] 100 μl per well of each dilution is added to the VCAM-coated plates, followed by 10 μl of Ramos cell-derived VLA-4. These plates are sequentially mixed on a platform shaker for 1 min, incubated for 2 hr at 37° C., and then washed four times with 200 μl/well VCAM Assay Buffer. 100 μl of mouse anti-human integrin β1 antibody is added to each well (0.6 μg/mL in VCAM Assay Buffer+1 mg/mL BSA) and allowed to incubate for 1 hr at 37° C. At the conclusion of this incubation period, all plates are washed four times with VCAM Assay Buffer (200 μl/well). A corresponding second antibody, HRP-conjugated goat anti-mouse IgG (100 μl per well @1:800 dilution in VCAM Assay Buffer+1 mg/mL BSA), is then added to each well, followed by a 1 hr incubation at room temperature and concluded by three washes (200 μl/well) with VCAM Assay Buffer. Color development is initiated by addition of 100 μl K-Blue per well (15 min incubation, room temp) and terminated by addition of 100 μl Red Stop Buffer per well. […] Results are calculated as % inhibition of total binding (i.e. VLA-4+VCAM-1 in the absence of test compound).

VLA-4 = VLA-4 (Homo sapiens, UniProt P05556+P13612); assay: IC50 of table 7, assay not given; conditions: table 7, Examples 79-84; assay not stated
VLA-4 (α4β1 integrin) [2] = target: T1, VLA-4 (α4β1 integrin); assay: cell-based; format: cell-based
From the text: Ramos (VLA-4)/VCAM-1 Cell-Based Screening Assay Protocol
Calcein-AM was purchased from Molecular Probes Inc.
VLA-4 (α4β1 integrin) antagonist activity, defined as ability to compete with cell-surface VLA-4 for binding to immobilized VCAM-1, was quantitated using a Ramos-VCAM-1 cell adhesion assay. Ramos cells bearing cell-surface VLA-4, were labeled with a fluorescent dye (Calcein-AM) and allowed to bind VCAM-1 in the presence or absence of test compounds.
Initially, this entailed coating 96 well plates (Nunc Maxisorp) with recombinant human VCAM-1 (100 ng in 100 μl PBS), sealing each plate and allowing the plates to stand at 4° C. for Å 18 hr. The VCAM-coated plates were subsequently washed twice with 0.05% Tween-20 in PBS, and then blocked for 1 hr (room temperature) with 200 μl of Blocking Buffer (1% BSA/0.02% thimerosal) to reduce non-specific binding. Following the incubation with Blocking Buffer, plates were inverted, blotted and the remaining buffer aspirated. Each plate was then washed with 300 μl PBS, inverted and the remaining PBS aspirated.
Test compounds were dissolved in 100% DMSO and then diluted 1:25 in VCAM Cell Adhesion Assay Buffer (4 mM CaCl2, 4 mM MgCl2 in 50 mM TRIS-HCl, pH 7.5) (final DMSO=4%). […] 100 μl/well of each dilution was added to the VCAM-coated plates, followed by 100 μl of Ramos cells (200,000 cells/well in 1% BSA/PBS). […] Plates were inverted to remove non-adherent cells, blotted and 300 μl/well PBS added. Plates were again inverted, blotted and the remaining buffer gently aspirated. 100 μl Lysis Buffer (0.1% SDS in 50 mM TRIS-HCl, pH 8.5) was added to each well and agitated for 2 min on a rotary shaking platform.

[3] = table 9, Examples 97-102, assay not given, values equal ELISA table 13, read-out: IC50
[4] = table 13, competition for binding of Ramos cell-derived VLA-4 to immobilized VCAM-1, read-out: ELISA IC50
[5] = table 14, Ramos cells binding to immobilized VCAM-1, read-out: Ramos IC50
[6] = table 11, Examples 151-155, assay not given, values equal Ramos table 14, read-out: IC50
[7] = table 12, Examples 156-160, assay not given, values equal Ramos table 14, read-out: IC50

Sequence of VLA-4 (P13612 34-1032): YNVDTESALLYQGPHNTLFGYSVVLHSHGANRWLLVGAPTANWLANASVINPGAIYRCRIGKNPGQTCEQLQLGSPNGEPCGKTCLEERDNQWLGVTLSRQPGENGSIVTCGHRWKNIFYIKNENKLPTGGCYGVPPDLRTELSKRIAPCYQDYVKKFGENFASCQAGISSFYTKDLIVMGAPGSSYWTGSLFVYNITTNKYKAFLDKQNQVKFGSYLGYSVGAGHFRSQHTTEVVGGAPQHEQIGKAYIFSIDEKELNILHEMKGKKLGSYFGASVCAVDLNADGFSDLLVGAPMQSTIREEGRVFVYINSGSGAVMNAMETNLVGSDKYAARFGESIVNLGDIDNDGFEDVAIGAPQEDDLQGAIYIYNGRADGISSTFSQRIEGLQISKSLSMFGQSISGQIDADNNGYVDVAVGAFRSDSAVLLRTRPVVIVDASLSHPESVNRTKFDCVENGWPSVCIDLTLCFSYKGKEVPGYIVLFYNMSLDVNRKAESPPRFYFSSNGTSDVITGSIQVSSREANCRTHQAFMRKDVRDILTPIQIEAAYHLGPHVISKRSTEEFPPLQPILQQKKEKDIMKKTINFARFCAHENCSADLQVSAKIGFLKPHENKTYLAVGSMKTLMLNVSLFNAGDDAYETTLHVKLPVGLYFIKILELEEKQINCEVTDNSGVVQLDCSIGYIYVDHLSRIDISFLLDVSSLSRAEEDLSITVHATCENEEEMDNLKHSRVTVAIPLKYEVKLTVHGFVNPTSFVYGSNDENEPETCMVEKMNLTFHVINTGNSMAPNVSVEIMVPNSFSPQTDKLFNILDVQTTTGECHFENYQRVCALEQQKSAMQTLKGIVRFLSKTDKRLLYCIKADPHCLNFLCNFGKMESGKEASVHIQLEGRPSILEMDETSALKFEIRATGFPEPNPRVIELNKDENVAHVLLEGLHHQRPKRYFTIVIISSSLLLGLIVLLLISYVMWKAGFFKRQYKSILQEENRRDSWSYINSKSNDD
Sequence of VLA-4 (P05556 21-798): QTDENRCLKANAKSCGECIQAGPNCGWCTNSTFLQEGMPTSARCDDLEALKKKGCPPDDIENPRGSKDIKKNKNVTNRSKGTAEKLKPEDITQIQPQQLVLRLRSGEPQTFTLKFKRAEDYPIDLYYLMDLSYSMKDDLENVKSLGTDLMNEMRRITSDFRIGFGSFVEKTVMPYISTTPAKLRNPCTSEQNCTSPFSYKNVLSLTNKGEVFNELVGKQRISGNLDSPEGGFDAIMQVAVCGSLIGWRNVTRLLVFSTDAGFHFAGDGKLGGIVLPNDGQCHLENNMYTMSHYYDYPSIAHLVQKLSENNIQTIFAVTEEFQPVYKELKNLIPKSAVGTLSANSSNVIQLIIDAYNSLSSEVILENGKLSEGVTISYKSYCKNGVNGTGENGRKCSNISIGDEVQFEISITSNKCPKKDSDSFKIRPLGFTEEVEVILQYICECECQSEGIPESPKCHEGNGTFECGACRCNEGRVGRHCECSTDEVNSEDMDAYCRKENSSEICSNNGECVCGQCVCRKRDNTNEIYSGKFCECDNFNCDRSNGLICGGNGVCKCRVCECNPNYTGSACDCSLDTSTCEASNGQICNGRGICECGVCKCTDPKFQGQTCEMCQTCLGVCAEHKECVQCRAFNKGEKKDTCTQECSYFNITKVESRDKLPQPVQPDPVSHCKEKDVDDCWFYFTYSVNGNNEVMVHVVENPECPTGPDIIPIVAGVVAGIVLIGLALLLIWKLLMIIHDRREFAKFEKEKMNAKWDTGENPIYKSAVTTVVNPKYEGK
T1 sequence (P13612 34-1032): as the sequence (P13612 34-1032) above
T1 sequence (P05556 21-798): as the sequence (P05556 21-798) above

Row | IC50 (VLA-4 (α4β1 integrin) [1]; [4]) | IC50 (VLA-4 (α4β1 integrin) [2]; [5]) | Compound | other results
1 | 1.85 nM | – | CC(C)(C)c1ccccc1C(=O)N[C@@H](Cc1ccc(NC(=O)c2c(Cl)cccc2Cl)cc1)C(=O)O [Example 17] | –
2 | – | 20 nM | COc1ccc(Br)c(C(=O)N[C@@H](Cc2ccc(NC(=O)c3c(Cl)cccc3Cl)cc2)C(=O)O)c1 [Example 24] | –
3 | 5.8 nM | 515 nM | Cc1cc(C[C@H](NC(=O)c2c(C)cccc2Cl)C(=O)O)ccc1NC(=O)Cc1cccc(O)c1 [Example 121] | –
4 | – | 13.5 nM | 4-[(2S,4R)-3-Acetyl-2-phenyl-4-(3-pyridinylmethyl)-5-oxo-1-imidazolinyl]-N- [(2-chloro-6-methylphenyl)carbonyl]-L-phenylalanine and 4-[(2R,4R)-3-acetyl-2-phenyl-4-(3-pyridinylmethyl)-5-oxo-1-imidazolinyl)-N-[(2-chloro-6-methylphenyl)carbonyl]-L-phenylalanine [Example 171] | –
5 | 0.63 nM | 22 nM | COc1ccc(Br)c(C(=O)N[C@@H](Cc2ccc(NC(=O)c3c(C)ccnc3C)cc2)C(=O)O)c1 [Example 108] | –
6 | – | 1.32 nM | O=C(N[C@@H](Cc1ccc(NC(=O)c2c(Cl)cccc2Cl)cc1)C(=O)O)c1ccc(Br)cc1Cl [Example 22] | –
7 | 0.51 nM | – | O=C(N[C@@H](Cc1ccc(NC(=O)c2c(Cl)cccc2Cl)cc1)C(=O)O)c1ccccc1Cc1ccccc1 [Example 31, 4-[[(2,6-dichlorophenyl)carbonyl]amino]-N-[[(2-phenylmethyl)phenyl]carbonyl]-L-phenylalanine] | –
8 | 0.48 nM | 316 nM | Cc1ccc(Cl)c(C(=O)N[C@@H](Cc2ccc(NC(=O)c3c(Cl)cccc3Cl)cc2)C(=O)O)c1 [Example 23] | –
9 | 5.9 nM | 2.6 nM | O=C(Nc1ccc(C[C@H](NC(=O)c2cccc3ccccc23)C(=O)O)cc1)c1c(Cl)cccc1Cl [Example 15] | –
10 | 0.44 nM | – | O=C(Nc1ccc(C[C@H](NC(=O)c2c(F)cccc2C(F)(F)F)C(=O)O)cc1)c1c(Cl)cccc1Cl [Example 16] | –

The remaining lines, values behind:

Row | Compound | IC50 (VLA-4 (α4β1 integrin) [1]; [4]) | IC50 (VLA-4 (α4β1 integrin) [2]; [5]) | other results
11 | CC(=O)N1[C@H](CC(C)C)C(=O)N(c2ccc(C[C@H](NC(=O)c3c(C)cccc3Cl)C(=O)O)cc2)[C@H]1c1ccc(O)cc1 [Example 97] | – | – | IC50 (VLA-4 (α4β1 integrin) [1]; [3]): 0.44 nM
12 | Cc1cccc(Cl)c1C(=O)N[C@@H](Cc1ccc(N2C(=O)[C@H](Cc3ccccc3)N(C)C2=O)cc1)C(=O)O [Example 84] | – | – | IC50 (VLA-4): 73 nM
13 | CC(=O)N1[C@H](CC(C)C)C(=O)N(c2ccc(C[C@H](NC(=O)c3c(C)cccc3Cl)C(=O)O)cc2)[C@@H]1C(C)(C)C [Example 102] | – | – | IC50 (VLA-4 (α4β1 integrin) [1]; [3]): 41 nM
14 | CSc1ccccc1C(=O)N[C@@H](Cc1ccc(NC(=O)c2c(Cl)cccc2Cl)cc1)C(=O)O [Example 25] | 0.42 nM | 103 nM | –
15 | Cc1cc(C[C@H](NC(=O)c2c(C)cccc2Cl)C(=O)O)ccc1NC(=O)c1cccc([N+](=O)[O-])c1 [Example 122] | 0.67 nM | 430 nM | –
16 | Cc1cc2ncc(C(=O)Nc3ccc(C[C@H](NC(=O)c4c(C)cccc4Cl)C(=O)O)cc3)c(C)n2n1 [Example 155] | – | – | IC50 (VLA-4 (α4β1 integrin) [2]; [6]): 644 nM
17 | Cc1cccc(Cl)c1C(=O)N[C@@H](Cc1ccc(N2C(=O)[C@H](C)N(C)C2=O)cc1)C(=O)O [Example 79] | – | – | IC50 (VLA-4): 53 nM
18 | CC(=O)N1[C@H](CC(C)C)C(=O)N(c2ccc(C[C@H](NC(=O)c3c(C)cccc3Cl)C(=O)O)cc2)[C@@H]1c1ccc(O)cc1 [Example 98] | – | – | IC50 (VLA-4 (α4β1 integrin) [1]; [3]): 2.35 nM
19 | Cc1cccc(Cl)c1C(=O)N[C@@H](Cc1ccc(NC(=O)c2nn(-c3ccccc3)nc2C)cc1)C(=O)O [Example 154] | – | – | IC50 (VLA-4 (α4β1 integrin) [2]; [6]): 2470 nM
20 | Cc1cccc(C(=O)N[C@@H](Cc2ccc(NC(=O)c3c(Cl)cccc3Cl)cc2)C(=O)O)c1Cl [Example 21] | – | 1.27 nM | –
21 | Cc1noc(C)c1C(=O)N[C@@H](Cc1ccc(NC(=O)c2c(Cl)cccc2Cl)cc1)C(=O)O [Example 158] | – | – | IC50 (VLA-4 (α4β1 integrin) [2]; [7]): 946 nM
22 | COc1ccc(C(=O)N[C@@H](Cc2ccc(NC(=O)c3c(Cl)cccc3Cl)cc2)C(=O)O)c(Cl)c1 [Example 19] | 1.87 nM | – | –
23 | Cc1nn(-c2ccccc2)nc1C(=O)N[C@@H](Cc1ccc(NC(=O)c2c(Cl)cccc2Cl)cc1)C(=O)O [Example 159] | – | – | IC50 (VLA-4 (α4β1 integrin) [2]; [7]): 988 nM
24 | CC(=O)N1CN(c2ccc(C[C@H](NC(=O)c3c(C)cccc3Cl)C(=O)O)cc2)C(=O)[C@@H]1CC(C)C [Example 101] | – | – | IC50 (VLA-4 (α4β1 integrin) [1]; [3]): 9.9 nM
25 | Cc1cccc(Cl)c1C(=O)NC(Cc1ccc(N2C(=O)C3Cc4ccccc4CN3C2=O)cc1)C(=O)O (stereo not shown) [Example 83] | – | – | IC50 (VLA-4): 72 nM
26 | Cc1cccc(Cl)c1C(=O)N[C@@H](Cc1ccc(NC(=O)c2c(C)noc2C)cc1)C(=O)O [Example 153] | – | – | IC50 (VLA-4 (α4β1 integrin) [2]; [6]): 975 nM
27 | Cc1cccc(Cl)c1C(=O)N[C@@H](Cc1ccc(N2C(=O)[C@H](C(C)C)N(C)C2=O)cc1)C(=O)O [Example 80] | – | – | IC50 (VLA-4): 24 nM
28 | Cc1cc(C[C@H](NC(=O)c2c(C)cccc2Cl)C(=O)O)ccc1NC(=O)c1c(Cl)cccc1Cl [Example 123] | 1.7 nM | 316 nM | –
29 | Cc1cccc(Cl)c1C(=O)N[C@@H](Cc1ccc(N2C(=O)[C@@H](CC(C)C)N(C)C2=O)cc1)C(=O)O [Example 82] | – | – | IC50 (VLA-4): 56 nM
30 | O=C(N[C@@H](Cc1ccc(NC(=O)c2c(Cl)cccc2Cl)cc1)C(=O)O)c1cccc(Cl)c1Cl [Example 20] | – | 1.63 nM | –
31 | Cc1cccc(Cl)c1C(=O)N[C@@H](Cc1ccc(NC(=O)c2sc(C(C)C)nc2C)cc1)C(=O)O [Example 152] | – | – | IC50 (VLA-4 (α4β1 integrin) [2]; [6]): 967 nM
32 | Cc1cc(C[C@H](NC(=O)c2c(C)cccc2Cl)C(=O)O)ccc1NC(=O)CCc1cccc(O)c1 [Example 120] | 4.5 nM | 439 nM | –
33 | CCc1cccc(C)c1C(=O)N[C@@H](Cc1ccc(NC(=O)c2c(Cl)cccc2Cl)cc1)C(=O)O [Example 92] | 0.42 nM | 255 nM | IC50 (VLA-4 (α4β1 integrin) [2]; table 8, Examples 90-95, read-out: IC50 Ramos): 10 nM
